Data on one compound can be found in patent US11427543B2, “Compounds for targeting cancer stem cells” (The General Hospital Corporation, priority 2016, dated 2022).

For one assay, the target named is T1, G3BP2 (Homo sapiens, UniProt Q9UN86).
T1 construct: protein lysates from three breast cancer cell lines incubated overnight with; endogenous in cells
T1 sequence (Q9UN86 1-482): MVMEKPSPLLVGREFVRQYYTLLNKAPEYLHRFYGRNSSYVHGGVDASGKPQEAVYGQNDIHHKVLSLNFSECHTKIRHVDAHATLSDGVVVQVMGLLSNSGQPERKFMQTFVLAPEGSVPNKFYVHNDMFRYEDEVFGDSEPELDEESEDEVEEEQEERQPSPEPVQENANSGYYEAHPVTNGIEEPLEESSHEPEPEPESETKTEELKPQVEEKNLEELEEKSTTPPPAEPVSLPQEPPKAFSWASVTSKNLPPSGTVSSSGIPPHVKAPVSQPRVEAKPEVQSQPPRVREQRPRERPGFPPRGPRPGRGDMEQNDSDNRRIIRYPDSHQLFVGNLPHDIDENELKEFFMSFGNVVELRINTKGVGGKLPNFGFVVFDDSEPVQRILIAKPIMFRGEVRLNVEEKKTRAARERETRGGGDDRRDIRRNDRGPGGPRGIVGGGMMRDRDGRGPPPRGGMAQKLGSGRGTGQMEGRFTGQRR
The assay can be described thus: Pull-down with compound-conjugated TURBOBEADS nanoparticles, Western blot with G3BP2 antibodies. The following applies: nanoparticles bound to compound vs nanoparticles alone (control). Type of assay: binding. On the procedure:
Western blot analysis was performed with G3BP2 antibodies. Small molecule 2-hydroxy-N′-[1-(2-hydroxyphenyl)ethylidene]benzohydrazide was conjugated to TURBOBEADS® carboxy nanoparticles (TURBOBEADS®). TURBOBEADS® alone were used as a negative control.
To determine which […] would bind to a test compound, TURBOBEADS® carboxy nanoparticles (TURBOBEADS®) were conjugated to 2-hydroxy-N′-[1-(2-hydroxyphenyl)ethylidene]benzohydrazide for 20 mi as per manufacturer's protocol, followed by overnight immunoprecipitation at 4° C. Proteins from metastatic cancer cells were pulled-down with using the test compound-nanoparticle conjugates and using unconjugated nanoparticles as a control.
shRNA-expressing lentivirus was obtained for each pull-down protein and used to infect modified MDA-MB-231 cells. MTT assays were performed with shRNA stable cell lines and treated with non-lethal doses of paclitaxel. Only shRNA […] made cells sensitive to treatment with paclitaxel. To confirm that the test compound (2-hydroxy-N′-[1-(2-hydroxyphenyl)ethylidene]benzohydrazide) bound to G3B3P2, an immunoprecipitation with magnetic nanoparticles bound to 2-hydroxy-N′-[1-(2-hydroxyphenyl)ethylidene]benzohydrazide and nanoparticles alone (control) was carried out.

A further assay relates to ZEB1. The assay can be described thus: ZEB1 protein level by Western blot after compound treatment. It is filed as cell-based. The note with it: MDA-MB-453 and BT-474 breast cancer cell lines, 3 μM, 24 hours. The method, then:
Immunoprecipitation was performed using Protein A Sepharose beads (GE Healthcare Lifesciences). Beads were washed, conjugated to the immunoprecipitating antibody for 2 hours, and immunoprecipitated overnight at 4° C. Western blots were performed using a standard protocol; using 4-10% gradient gel and Tris-glycine transfer buffer.
A direct molecular link between epithelial-mesenchymal transition (EMT) and CSC plasticity in breast cancer has recently been shown; EMT effectors such as ZEB1 can co-induce both EMT and stem-like properties (see e.g., Chaffer et al., Cell, 2013, 154, 61-74). To understand if the G3BP2-mediated CSC state intersects with the EMT program, we the protein level of ZEB1 in G3BP2 knockdown and overexpression breast cancer cell lines was analyzed.

The next assay has as its system PD-L1. The assay can be described thus: PD-L1 protein level by Western blot in cells under compressive (solid) stress. Type of assay: cell-based. The note with it: breast cancer (4T1) and glioblastoma cells (CT2A, GL261), solid stress 0.80 kPa, 1 μM, 24 hours. On the procedure:
Cells were treated with 1 μM C108 for 24 hours and untreated cells were used as a control. β-actin was used as a loading control.
To generate compressive stress, a device was used that included a piston of adjustable weights applying a constant force to cells growing on a transwell membrane with 0.8 μm-pores. This membrane permitted nutrient and oxygen diffusion but prevented cell transmigration. The connection between compressive stress and G3BP2 and PD-L1 protein levels was measured in 4T1 cells. When 80% cell confluence was reached on the membrane, the cells were compressed for 24 h using the in vitro compression device; a similar membrane containing 80% cell confluence in an uncompressed condition was used as the control. After 24-h compression, proteins were isolated from the control and compressed cells cultured in full-growth medium according to the standard protocol (see e.g., Roose et al. Microvasc Res, 2003, 66(3):204-12). […] To confirm this finding, Western blot analysis was performed with different breast cancer cells (MDA-MB-231 cells) with different of compressive stress, as shown in FIG. 15B).
It was then hypothesized that compounds that bind to G3BP2 protein can repress PD-L1 in stressed cells. Breast cancer cells and glioblastoma cells in vitro were analyzed with 2-hydroxy-N′-[1-(2-hydroxyphenyl)ethylidene]benzohydrazide (i.e., C108) for 24 hours.

The next assay relates to IL-6. In words: IL-6 concentration by ELISA after compound treatment. Type of assay: cell-based. The following applies: 4T1 and E0771 breast cancer cell lines, 1 μM, 24 hours. On the procedure:
After treatment, IL-6 concentration was decreased by about 5 to 7 fold.
4T1 and E0771 cells were grow in 96 well plate and were treated with compound for 24 hours (concentration of compound was 1 μM). Commercial ELISA kit (R&D systems) was used for measuring of IL-6 concentration. […] After treatment, IL-6 concentration was decreased by about 5 to 7 fold.

Molecules are shown by their SMILES. “Also recorded” adds a separate entry of the source.

With `CC(=NNC(=O)c1ccccc1O)c1ccccc1O` [C108, 2-hydroxy-N′-[1-(2-hydroxyphenyl)ethylidene]benzohydrazide], the “Binding of G3BP2 to the compound (Western blotting after immunoprecipitation with magnetic nanoparticles)” value at G3BP2 is on record as “binds”. Besides, the ZEB1 inhibition with ZEB1 was 5-7 fold. Moreover, the PD-L1 expression level entry in the assay with PD-L1 was “repressed; also recorded: diminished”. The “Decrease in IL-6 concentration” value with IL-6 lay within 5 to 7 fold.
